Source: patent US10308960B2, “Methods for treating cells containing fusion genes” (University of Pittsburgh—of the Commonwealth System of …, priority 2014, dated 2019)
Values after ≈ are worked out from the molar mass of the structure shown. One block for each molecule: values may come before it.

How the values were obtained:
[1] = system: PC3 cells expressing MAN2A1-FER; assay: Killing of MAN2A1-FER expressing PC3 cells by kinase inhibitors; format: cell-based, human; conditions: for cell death: PC3 transformed with pCDNA4-MAN2A1-FER-FLAG/pCDNA6, MAN2A1-FER expressing, Crisotinib low dosage 24 hours; for specific killing of MAN2A1-FER expressing cells (FIG. 23): expression induced with 5 μg/mL tetracycline
[2] = system: PC3 cells not expressing MAN2A1-FER (Tet−); assay: Killing of PC3 cells not expressing MAN2A1-FER (Tet−) by kinase inhibitors; format: cell-based, human; conditions: same treatment, cells not expressing the fusion protein (Tet−)
Procedure: FIG. 23. […] Prostate cancer cell line PC3 was transformed with pCDNA4-MAN2A1-FER-FLAG/pCDNA6. Expression of MAN2A1-FER was induced with 5 μg/mL tetracycline. Cells not treated with tetracycline nor any drug were used as background controls.
The second approach is to target EGFR activation by EGFR inhibitors. These include erlotinib, cetuximab, […], canertinib and […]. Many of these drugs were FDA approved and is widely used in a variety of human solid tumors. To interrogate the effectiveness of EGFR activation interruption in treating prostate cancer, we treated MAN2A1-FER transformed PC3 cells with canertinib.

[3] = system: PC3 cells containing TMEM135-CCDC67 breakpoint; assay: Ganciclovir cell death after co-transfection of TK donor DNA and nickase-gRNA vector, breakpoint cells; format: cell-based, human
Procedure: (§1) FIG. 28A-B. Genetic therapy targeting at TMEM135-CCDC67 genome breakpoint.
(§2) The technique described above was applied to cells having the TMEM135-CCDC67 breakpoint. Since none of the fusion genes identified so far was present in prostate cancer cell lines, a TMEM135-CCDC67 genome breakpoint was created that is identical to the prostate cancer sample were analyzed. The expression of the TMEM135-CCDC67 breakpoint was driven by a CMV promoter. Subsequently, a donor DNA was constructed that encompassed HSV-1 TK and the splicing sites of TMEM135 exon 14. When this donor DNA was co-transfected with a vector that expresses gRNA targeting at the TMEM135-CCDC67 breakpoint into PC3 cells containing this genome breakpoint, integration of TK into the genome was identified (FIG. 28A). […] This is remarkable in considering only 5-10% transfection efficiency using conventional liposome method. […] In light of this promising result, both TMEM135-CCDC67-TK cassette and NicKase-gRNATMEM135-CCDC67-BrkPt DNA are now in the process of packaging into Adenovirus. We will infect the recombinant virus into these cells in the future experiments. This will dramatically improve the delivery efficiency in the subsequent animal study and probably human.

[4] = system: PC3 cells without TMEM135-CCDC67 breakpoint; assay: Ganciclovir cell death after co-transfection of TK donor DNA and nickase-gRNA vector, cells without breakpoint; format: cell-based, human; conditions: same treatment
Procedure: as §1, §2

[5] = system: PC3 cells containing TMEM135-CCDC67 breakpoint (PC3 + pCMV-BP); assay: FACS analysis of apoptotic cells (Annexin V), PC3 with breakpoint; format: cell-based, human; conditions: PC3 with breakpoint infected with both adenoviruses
Procedure: (§3) FIG. 31A-B. Treatment with nucleotide analogue ganciclovir kills cancer cells expressing EGFP-tk. (A) PC3 or DU145 cells containing the TMEM135-CCDC67 fusion gene were infected with pAD5-Cas9^D10A-gRNA^TMEM135int13-gRNA^CCDC67int9 and pAD-TMEM135int13-EGFP-tk-CCDC67int9. These cells were then incubated with various concentrations of ganciclovir for 24 hours. Cell deaths were then quantified with phycoerythrin labeled Annexin V through flow cytometer. PC3 or DU145 cells harboring no TMEM135-CCDC67 breakpoint were used as controls. (B) Representative sample of cell death induced by ganciclovir on cells infected with pAD5-Cas9^D10A-gRNA^TMEM135int13-gRNA^CCDC67int9 and pAD-TMEM135int13-EGFP-tk-CCDC67int9, and treated with 5 μg/ml ganciclovir. PC3 or DU145 cells harboring no TMEM135-CCDC67 breakpoint were used as controls. Apoptosis was indicated by Annexin V staining.
(§4) Fluorescence activated cell sorting (FACS) analysis of apoptotic cells. The assays were previously described.^8-16 Briefly, the cells treated with pAD5-Cas9^D10A-gRNA^TMEM135int13-gRNA^CCDC67int9/pAD-TMEM135int13-EGFP-tk-CDC67int9, and various concentrations of ganciclovir were trypsinized and washed twice with cold PBS. […] The fluorescence stained cells were analyzed at the fluorescence emission at 533 nm (FL2). […] For each acquisition, 10,000 to 20,000 cells were sorted based on the fluorescence color of the cells. […]

[6] = system: DU145 cells containing TMEM135-CCDC67 breakpoint (DU145 + pCMV-BP); assay: FACS analysis of apoptotic cells (Annexin V), DU145 with breakpoint; format: cell-based; conditions: DU145 with breakpoint infected with both adenoviruses
Procedure: as §3, §4

[7] = system: PC3 cells harboring no TMEM135-CCDC67 breakpoint (PC3 + pCMV); assay: FACS analysis of apoptotic cells (Annexin V), PC3 without breakpoint; format: cell-based, human; conditions: PC3, equally infected, ganciclovir up to 100 μg/ml
Procedure: as §3, §4

[8] = system: DU145 cells harboring no TMEM135-CCDC67 breakpoint (DU145 + pCMV); assay: FACS analysis of apoptotic cells (Annexin V), DU145 without breakpoint; format: cell-based; conditions: DU145, equally infected, ganciclovir up to 100 μg/ml
Procedure: as §3, §4

[9] = system: SLC45A2-AMACR transformed PC3 cells treated with tetracycline (PC3/SLAM tet+); assay: Ebselen cell growth inhibition, PC3/SLAM tet+; format: cell-based, human
Source text: (§5) FIG. 26. […] Untransformed RWPE1, NIH3T3 cells and SLC45A2-AMACR transformed PC3 cells treated with (PC3/SLAM tet+) or without tetracycline (PC3/SLAM tet−) were applied with indicated concentration of Ebselen. Cell growths relative to unapplied controls were examined.
(§6) Therapeutic targeting at SLC45A2-AMACR using racemase inhibitor. To investigate whether targeting SLC45A2-AMACR is a viable approach to treat prostate cancer, we chose 2 approaches: 1) To intercept SLC45A2-AMACR/SHIP2-Akt pathway with small molecules; and 2) to block the ectopic racemase activity of SLC45A2-AMACR with ebselen or trifluoro-ibuprofen. […] This is probably due to Pten negative status of PC3 cells such that Akt pathway is fully activated regardless the presence of SLC45A2-AMACR. On the other hand, when we applied ebselen, the potent inhibitor of racemase of AMACR, to SLC45A2-AMACR expressing PC3 cells, 5 fold higher sensitivity of cell growth inhibition was found for PC3 cells transformed with pCDNA4-SLC45A2-AMACR-FLAG/pCDNA6 over the controls.

[10] = system: SLC45A2-AMACR transformed PC3 cells without tetracycline (PC3/SLAM tet−); assay: Ebselen cell growth inhibition, PC3/SLAM tet−; format: cell-based; conditions: Homo sapiens, PC-3
Source text: as §5, §6

NIH3T3 cells = assay: Ebselen cell growth inhibition, NIH3T3; format: cell-based; conditions: Mus musculus
Source text: as §5, §6

RWPE1 cells = assay: Ebselen cell growth inhibition, RWPE1; format: cell-based; conditions: Homo sapiens, RWPE-1
Source text: as §5, §6

Compound: C[C@@H](Oc1cc(-c2cnn(C3CCNCC3)c2)cnc1N)c1c(Cl)ccc(F)c1Cl [Crisotinib]
- cell death [1]: 31%
- lowering of cancer killing EC50 by expression of MAN2A1-FER ([1]; dosage effect analysis, expressing vs not expressing): ~100 fold
- specific killing of MAN2A1-FER expressing cells (FIG. 23) [1]: specifically kills cells expressing MAN2A1-FER
- killing of cells that do not express MAN2A1-FER [2]: hardly killed

Compound: Nc1nc2c(ncn2COC(CO)CO)c(=O)[nH]1 [ganciclovir, 9-(1,3-dihydroxy-2-propoxymethyl)guanine]
- increase of cell death ([3]; PC3 with breakpoint co-transfected with donor DNA and gRNA vector, liposome method): 8 fold
- specific killing of breakpoint containing cells (FIG. 28B) ([3]; transfected with pTMEM135-CCDC67-TK-GFP and pNicKase-RFP-gRNA-TMEM135-CCDC67-BrkPt): specific killing
- cell death [4]: minimal cell death
- EC50 ([5]; Homo sapiens, PC-3, 24 hours, read-out: ganciclovir concentration at which killing reached 50% of its maximal level): 0.075 µg/mL (≈ 0.294 µM)
- ganciclovir concentration at which killing was at the peak [5]: 5 µg/mL
- ganciclovir concentration at which killing was at the peak [6]: 5 µg/mL
- EC50 ([6]; Homo sapiens, DU-145, 24 hours, read-out: ganciclovir concentration at which killing reached 50% of its maximal level): 0.075 µg/mL (≈ 0.294 µM)
- cell deaths in cells containing no breakpoint [7]: No significant cell deaths
- cell deaths in cells containing no breakpoint [8]: No significant cell deaths

Compound: Cn1cnc2c(F)c(Nc3ccc(Br)cc3Cl)c(C(=O)NOCCO)cc21 [AZD6244]
- differential killing effect (MAN2A1-FER expressing vs not) ([1]; MEK interception, data not shown): largely moderated and vanished

- IC50 ([9]; Homo sapiens, PC-3, PC3/SLAM tet+): 37 µM
- IC50 [10]: 173 µM
Compound: O=c1c2ccccc2[se]n1-c1ccccc1 [Ebselen, ebselen]
- higher sensitivity of cell growth inhibition over the controls ([9]; PC3 transformed with pCDNA4-SLC45A2-AMACR-FLAG/pCDNA6 vs controls): 5 fold
- IC50 (NIH3T3 cells): > 300 µM
- IC50 (RWPE1 cells): > 300 µM

Compound: C=CC(=O)Nc1cc2c(Nc3ccc(F)c(Cl)c3)ncnc2cc1OCCCN1CCOCC1 [canertinib]
- cell death [1]: 34%
- specific killing of MAN2A1-FER expressing cells (FIG. 23) [1]: specifically kills cells expressing MAN2A1-FER
- killing of cells that do not express MAN2A1-FER [2]: minimal
